Test results: PMC4945070 (PLoS Neglected Tropical Diseases, 2016)
Several values for one entry are separate records, joined by “and”; a condition that tells them apart may be missing. Equal values may be shown once. Entries after “also recorded” stand apart in the source; their conditions may differ. Where a name gives a salt, the structure may show the parent alone. Read-outs that look alike come from different tables or passages of the source.

How the values were obtained:
[1] = molecular target: H. contortus L-AChR1.1 (UNC-63, UNC-38, ACR-8, UNC-29.1) (Haemonchus contortus, UniProt A9XX24+D6MYE9+D6MYF3+D6MYF4); assay: cell-based; design: Emax: dose or concentration left out as unconfirmed
Procedure: (§1) The H. contortus cDNAs encoding AChR subunits and ancillary proteins were available as expression clones in the pTB207 vector and C. elegans expression clones were a gift from T. Boulin.. cRNA synthesis of each construct required NheI-linearized templates and was performed with the mMessage mMachine T7 Kit (Ambion) according to the manufacturer’s instructions. cRNAs were precipitated with lithium chloride and redissolved in RNAse-free water and stored at -80°C. cRNA concentration was determined using a Nanodrop spectrophotometer (Thermo Scientific) and cRNA purity and integrity was assessed by electrophoresis through a 1% gel stained with GreenGlo nucleic acid dye (Denville Scientific Inc.).
(§2) Oocytes were collected from mature Xenopus females according to standard procedures and incubated at 19°C in a ND96 solution (NaCl 96 mM, KCl 2 mM, CaCl2 1.8 mM, MgCl2 1 mM, and HEPES 5 mM, pH 7.3 supplemented with sodium pyruvate 2.5 mM). Defolliculated oocytes were injected into the animal pole with approximately 36 nL of a cRNA mix containing 50 ng/μL of each cRNA in RNAse-free water using the Nanoject system (Drummond Scientific, Broomall, PA). Negative controls consisted of oocytes injected with RNAse-free water. Oocytes were then stored at 19°C in ND96 for 5 days to allow receptor expression. In order to prevent activation of endogenous calcium-activated chloride channels, the oocytes were incubated in ND96 supplemented with 100 μM of the calcium chelator BAPTA-AM, 4h prior to recording.
(§3) Two-electrode voltage-clamp experiments were carried out using a perfusion system connected to a flat RC-1Z chamber (Harvard Apparatus). Glass electrodes were filled with 3M KCl and checked for resistance between 1 and 3 MΩ. The oocyte bath was connected to the ground through a 3 M KCl agar bridge. Agonist and antagonists were dissolved or diluted in recording solution (100 mM NaCl, 2.5 mM KCl, 1 mM CaCl2, 5 mM HEPES, pH 7.3). All measurements were performed using a Geneclamp 500B amplifier and Digidata 1322M (Axon Instruments), oocytes were voltage-clamped at -60 mV. Drug solutions were applied to oocytes by gravity flow using perfusion syringes directly connected to the chamber. Data were collected and analyzed using Clampex 9.2 and Clampfit 9.2 (Axon Instruments, Sunnyvale, CA, USA). Traces were filtered at 30 Hz and analyzed using GraphPad Prism 5.0 software (GraphPad Software, San Diego, CA, USA). Final results are presented as means ± SE.

[2] = molecular target: H. contortus L-AChR1.3 (UNC-63, UNC-38, ACR-8, UNC-29.3) (Haemonchus contortus, UniProt A9XX24+D6MYF1+D6MYF3+D6MYF4); assay: cell-based; design: Emax: dose or concentration left out as unconfirmed
Procedure: as §1, §2, §3

[3] = molecular target: H. contortus L-AChR1.4 (UNC-63, UNC-38, ACR-8, UNC-29.4) (Haemonchus contortus, UniProt A9XX24+D6MYF2+D6MYF3+D6MYF4); assay: cell-based; type: cell-based; design: Emax: dose or concentration left out as unconfirmed
Procedure: as §1, §2, §3

[4] = test system: H. contortus L-AChR1.2 (UNC-63, UNC-38, ACR-8, UNC-29.2); type: cell-based, Haemonchus contortus; settings: UNC-29.1 replaced by UNC-29.2; n = 18
Procedure: as §1, §2
(§4) Two-electrode voltage-clamp experiments were carried out using a perfusion system connected to a flat RC-1Z chamber (Harvard Apparatus). Glass electrodes were filled with 3M KCl and checked for resistance between 1 and 3 MΩ. The oocyte bath was connected to the ground through a 3 M KCl agar bridge. […] Data were collected and analyzed using Clampex 9.2 and Clampfit 9.2 (Axon Instruments, Sunnyvale, CA, USA). Traces were filtered at 30 Hz and analyzed using GraphPad Prism 5.0 software (GraphPad Software, San Diego, CA, USA). […]

[5] = molecular target: H. contortus L-AChR1.1 with added UNC-29.2 (Haemonchus contortus, UniProt A9XX24+D6MYE9+D6MYF3+D6MYF4); assay: Two-electrode voltage clamp of L-AChR1.1 supplemented with unc-29.2 cRNA in Xenopus oocytes; type: cell-based
Text: Typically, such a situation can be identified by a change in the pharmacological properties of a receptor with addition of the second subunit. To address this, we examined the possibility that UNC-29.2 may interfere with or modify the properties of the reconstituted L-AChR1.1. We prepared oocytes injected with cRNAs to express the H. contortus L-AChR1.1 and supplemented this with an increasing (0.2, 1, 5 times) concentration of cRNA for UNC-29.2 relative to UNC-29.1.
as §1, §2, §3

[6] = test system: C. elegans L-AChR subunits (Cel-unc-63, Cel-unc-38, Cel-lev-8, Cel-lev-1) with Hco-unc-29 paralog; assay: Two-electrode voltage clamp of C. elegans / H. contortus AChR subunit admixtures in Xenopus oocytes; type: cell-based; settings: each Hco-unc-29 paralog
Text: To confirm that the LEV sensitivity rescue could be due to the functional incorporation of parasite protein into the C. elegans L-AChR, we injected into Xenopus oocytes, cRNA admixtures of the four essential C. elegans L-AChR subunits: Cel-unc-63, Cel-unc-38, Cel-lev-8 and Cel-lev-1, the three H. contortus accessory proteins: ric-3, unc-50 and unc-74, and the Cel-unc-29 or each Hco-unc-29 paralog in turn. Reconstitution of the C. elegans L-AChR with Cel-unc-29 produced functional channels as previously described, confirming that the H. contortus accessory proteins are functional between species. Omitting unc-29 produced no response, so any current produced using parasite genes must involve their incorporation into a functional L-AChR. […] UNC-29.1 produced an average of 500 μA currents, while the other three produced reproducible currents below 200 nA with UNC-29.2 producing the smallest response on average (S1 Fig).
as §1, with “Inc.). […]” for “Inc.).”
as §4, with “Apparatus).” for “Apparatus). Glass electrodes were filled with 3M KCl and checked for resistance between 1 and 3 MΩ. The oocyte bath was connected to the ground through a 3 M KCl agar bridge.”

C. elegans = settings: 200 μM LEV
Procedure: The Cel-unc-29, unc-29.1, unc-29.2, unc-29.3, unc-29.4 cDNA sequences were amplified by PCR using primers containing restriction site inserted with restriction enzymes in the plasmid backbone (Addgene L2534) containing the myo-3 promoter. Strains used in these study were the wild-type Bristol isolate N2 and the LEV resistant isolate CB1072: unc-29 (e1072). Worms were grown on Escherichia coli OP50 seeded NGM (Nematode Growth Medium) plates at 20°C and maintained using standard culture methods. Hermaphrodite young adult C. elegans were transformed by microinjection of plasmids into the gonads. […] Successful transformation was determined by the observation of fluorescence of the selection marker in the two targeted neurones of the head region. Only worms carrying the selection marker were used for the behavioural and pharmacological analysis.
Three day old adult fluorescent worms were transferred onto unseeded NGM plates, equilibrated at 20°C, containing 200 μM LEV. Drug induced paralysis was determined by visual inspection every 15 min. Worms were defined as paralyzed if no movement was observed within five seconds after prodding the tail with a hair tip. Statistics. Experimental data are shown as mean ± S.D. Statistical comparisons between the unc-29 (e1072) mutant strain and the transformed lines were done using two-way ANOVA with Bonferroni’s multiple comparison post test. A level of p < 0.05 was considered significant.

## COc1cc2c3cc1Oc1cc(ccc1O)C[C@@H]1c4c(cc(OC)c(O)c4Oc4ccc(cc4)C[C@@H]3N(C)CC2)CC[N+]1(C)C [D-turbocurarine, (+)-tubocurarine chloride hydrate]
[1]; L-AChR1.1, dTC 100 μM, DHβE 10 μM, MECA 30 μM, 100 μM ACh
  blocking of ACh elicited currents: efficiently blocked the ACh responses
[1]; L-AChR1.1, inhibition of 100 μM ACh current, dTC 100 μM, DHβE 10 μM, MECA 30 μM
  Max. Inhibition ± S.E.: 99.63 ± 0.35
[2]; L-AChR1.3, dTC 100 μM, DHβE 10 μM, MECA 30 μM, 100 μM ACh
  blocking of ACh elicited currents: efficiently blocked the ACh responses
[2]; L-AChR1.3, inhibition of 100 μM ACh current, dTC 100 μM, DHβE 10 μM, MECA 30 μM
  Max Inhibition ± S.E.: 99.98 ± 0.02
[3]; L-AChR1.4, dTC 100 μM, DHβE 10 μM, MECA 30 μM, 100 μM ACh
  blocking of ACh elicited currents: efficiently blocked the ACh responses
[3]; L-AChR1.4, inhibition of 100 μM ACh current, dTC 100 μM, DHβE 10 μM, MECA 30 μM
  Max Inhibition ± S.E.: 97.52 ± 1.09

## C[N+]1(C)CCN(c2ccccc2)CC1 [DMPP, 1,1-dimethyl-4-phenylpiperazinium iodide]
[1]; L-AChR1.1, agonists at 100 μM, normalized to 100 μM acetylcholine, read-out: Max. Current ± S.E.
  Emax at 100 µM: 42 ± 1.41%
[2]; L-AChR1.3, agonists at 100 μM, normalized to 100 μM acetylcholine, read-out: Max. Current ± S.E.
  Emax at 100 µM: 36.9 ± 3.93%
[3]; L-AChR1.4, agonists at 100 μM, normalized to 100 μM acetylcholine, read-out: Max. Current ± S.E.
  Emax at 100 µM: 31.6 ± 1%

## c1ccc([C@H]2CN3CCSC3=N2)cc1 [LEV, (-)-tetramisole hydrochloride]
[1]
  Hill: 0.84 ± 0.05
  Relative response (LEV versus ACh): superagonist; also recorded: LEV > ACh
[1]; EC50
  EC50: 4.9 µM and 4.91 µM
[1]; read-out: LEV current, % of ACh response
  Emax at 100 µM: 125%
[1]; read-out: Max. Current ± S.E.
  Emax: 125 ± 3.76%
[2]
  EC50: 1.15 ± 0.08 µM
  Hill: 1.13 ± 0.09
  Relative response (LEV versus ACh): partial agonist; also recorded: LEV < ACh
[2]; read-out: LEV current, % of the ACh current
  Emax at 100 µM: 65.2 ± 9.9%
[2]; read-out: Max. Current ± S.E.
  Emax: 65.2 ± 3.5%
[3]
  EC50: 2.48 ± 0.35 µM
  Hill: 0.90 ± 0.12
  Relative response (LEV versus ACh): LEV = ACh
[3]; read-out: Max. Current ± S.E.
  Emax: 94.7 ± 2.93%
[4]
  current in response to 100 μM perfusion: failed to produce any detectable current
[5]; 0.2, 1, 5 times unc-29.2 cRNA relative to UNC-29.1
  effect of unc-29.2 cRNA on the pharmacological response: no effect
[5]; 29.1 : 29.2 cRNA 1 : 0.2
  EC50: 3.05 ± 0.44 µM
  Hill: 0.69 ± 0.09
[5]; 29.1 : 29.2 cRNA 1 : 1
  EC50: 2.41 ± 0.08 µM
  Hill: 0.71 ± 0.13
[5]; 29.1 : 29.2 cRNA 1 : 5
  EC50: 3.7 ± 0.35 µM
  Hill: 0.77 ± 0.13
[6]
  current on perfusion of 100 μM LEV relative to the ACh response: comparable between subunit copies
C. elegans; mutant unc-29(e1072) (CB1072), two hours
  paralysis on exposure to LEV: barely affected
C. elegans; unc-29(e1072) transfected with Cel-unc-29
  paralysis on exposure to LEV: complete rescue of LEV sensitivity
C. elegans; unc-29(e1072) transfected with each of the four H. contortus unc-29 copies
  paralysis on exposure to LEV: paralyzed after two hours
C. elegans; wild-type N2 worms
  paralysis on exposure to LEV: rapid paralysis that was complete after an hour

## CN1CCC[C@H]1c1cccnc1 [Nicotine, (-)-nicotine hydrogen tartrate]
[1]; read-out: Max. Current ± S.E.
  Emax: 4.7 ± 1.05%
[2]; read-out: Max. Current ± S.E.
  Emax: 6.79 ± 1.46%
[3]; read-out: Max. Current ± S.E.
  Emax: 1.52 ± 0.47%

## CN1CCCN=C1/C=C/c1cccs1 [Pyrantel, pyrantel citrate]
[1]; read-out: Max. Current ± S.E.
  Emax: 11.8 ± 0.99%
[2]; read-out: Max. Current ± S.E.
  Emax: 13.8 ± 1.26%
[3]; read-out: Max. Current ± S.E.
  Emax: 7.32 ± 0.98%
